Test results: PMC2364024, “Bioavailability and dose-dependent anti-tumour effects of 9-cis retinoic acid on human neuroblastoma xenografts in rat” (British Journal of Cancer, 2001)
Several values for one entry are separate records, joined by “and”; a condition that tells them apart may be missing. Equal entries are not always repeated. Entries after “also recorded” stand apart in the source; their conditions may differ. Where two headings read alike, the source gives them in different places.

Key:
[1] = tested on: human neuroblastoma SH-SY5Y xenografts; assay: Neuroblastoma SH-SY5Y xenograft tumour growth in nude rats; assay type: in vivo
Description: This increases the importance of finding new therapeutic drugs. […] Two animals were sacrificed at each time point. […] The true tumour weight was recorded at autopsy. […] All treatments were administered with a gastric feeding tube.

[2] = rat, in vivo; for conversion of 9-cis RA to its metabolite (4-oxo-9-cis RA) / ratio AUC (4-oxo-9-cis RA)/AUC (9 cis RA): male, Sprague-Dawley; for ratio AUC (4-oxo-9-cis RA)/AUC (9 cis RA) / AUC (area under the curve) / Cmax (concentration maximum) / T1/2 (elimination half-life): 9 mg
[3] = tested on: human neuroblastoma SH-SY5Y xenografts; set-up: method as in Ponthan et al, 2001; conditions: nude rats, 9-cis RA 5 mg day-1 (once daily); ref Ponthan et al, 2001; cited from earlier work
[4] = Pharmacokinetic study of 9-cis RA in rat (plasma HPLC, one-compartment model)

Structure (SMILES): CC1=C(/C=C/C(C)=C\C=C\C(C)=C\C(=O)O)C(C)(C)CCC1 [9-cis RA, 9-cis retinoic acid]
- tumour weight, trend ([1]; 2 x 2.5 mg day-1 treated group): tendency towards a reduction in tumour weights
- tumour weight at sacrifice, median (and range) ([1]; 9-cis RA 2 mg day-1 (RA 1), n 10 tumours, 12 days): 2.79 g and 1.49 to 9.98 g
- effect on tumour growth ([1]; 9-cis RA 2 mg day-1 p.o.): no significant effect on tumour growth; also recorded: tumour growth-inhibiting effect was not significant
- tumour volume compared to control tumours ([1]; 9-cis RA 2 mg day-1 p.o., 12 days): no significant reduction in tumour volume
- effect on tumour growth ([1]; 9-cis RA 2.5 mg p.o. twice daily): only limited effect on tumour growth; also recorded: limited but statisti- cally significant reduction in tumour growth
- tumour volume compared to corresponding controls ([1]; 9-cis RA 2.5 mg p.o. twice daily, day 8): not at day 8
- tumour weight at sacrifice, median (and range) ([1]; 9-cis RA 2 x 2.5 mg (RA 2), n 3 tumours, 10 days): 1.84 g and 0.92 to 2.95 g
- tumour weight compared to untreated control tumours ([1]; regardless of treatment schedule (2 mg day-1 or 2.5 mg twice daily), after 10-12 days of therapy): no significant reduction in tumour weight
- conversion of 9-cis RA to its metabolite (4-oxo-9-cis RA) ([2]; iv): about 8%
- ratio AUC (4-oxo-9-cis RA)/AUC (9 cis RA) ([2]; iv): 0.08
- conversion of 9-cis RA to its metabolite (4-oxo-9-cis RA) ([2]; po): 42%
- ratio AUC (4-oxo-9-cis RA)/AUC (9 cis RA) ([2]; po): 0.42
- effect on tumour growth [3]: significant reduction in tumour growth
- elimination half-life (t1/2) ([4]; 9 mg 9-cis RA, p.o. and i.v. taken together): 26 to 43 min
- AUC (area under the curve) ([4]; intravenous administration, 9 mg 9-cis RA): 80100 ng·h/mL
- Cmax ([4]; male, Sprague-Dawley, plasma, iv, 9 mg): 120000 ng/mL
- half-life ([4]; male, Sprague-Dawley, plasma, iv, 9 mg, T1/2 (elimination half-life), intravenous administration, 9 mg 9-cis RA): 26.4 min
- bioavailability ([4]; male, Sprague-Dawley, plasma, oral, 9 mg): 11%
- half-life ([4]; male, Sprague-Dawley, plasma, other: p.o. and i.v. taken together, 9 mg, elimination half-life (t1/2), 9 mg 9-cis RA, p.o. and i.v. taken together): 35 min
- Cmax ([4]; male, Sprague-Dawley, plasma, po, 9 mg): 3000 ng/mL
- half-life ([4]; male, Sprague-Dawley, plasma, po, 9 mg, T1/2 (elimination half-life), oral administration, 9 mg 9-cis RA): 42.6 min
- AUC (area under the curve) ([4]; oral administration, 9 mg 9-cis RA): 8550 ng·h/mL

Structure (SMILES): CC1=C(/C=C/C(C)=C\C=C\C(C)=C\C(=O)O)C(C)(C)CCC1=O [4-oxo-9-cis RA, 4-oxo-9-cis retinoic acid]
- formed amount (AUC) of 4-oxo-9-cis RA after i.v. versus p.o. administration [2]: 2 fold
- Tmax (time of Cmax) ([2]; iv): 188 min
- AUC (area under the curve) ([2]; iv): 6295 ng/mL/h
- Cmax (concentration maximum) ([2]; iv): 738 ng/mL
- T1/2 (elimination half-life) ([2]; iv): 129 min
- Tmax (time of Cmax) ([2]; po): 275 min
- AUC (area under the curve) ([2]; po): 3563 ng/mL/h
- Cmax (concentration maximum) ([2]; po): 441 ng/mL
- T1/2 (elimination half-life) ([2]; po): 126 min
